One experiment concerns the target T1, MAO-A (Rattus norvegicus, UniProt P21396).
T1 construct: employing crude rat brain mitochondrial suspension; from tissue; host or cells: brain mitochondria of adult Wistar rats
T1 sequence (P21396 1-526): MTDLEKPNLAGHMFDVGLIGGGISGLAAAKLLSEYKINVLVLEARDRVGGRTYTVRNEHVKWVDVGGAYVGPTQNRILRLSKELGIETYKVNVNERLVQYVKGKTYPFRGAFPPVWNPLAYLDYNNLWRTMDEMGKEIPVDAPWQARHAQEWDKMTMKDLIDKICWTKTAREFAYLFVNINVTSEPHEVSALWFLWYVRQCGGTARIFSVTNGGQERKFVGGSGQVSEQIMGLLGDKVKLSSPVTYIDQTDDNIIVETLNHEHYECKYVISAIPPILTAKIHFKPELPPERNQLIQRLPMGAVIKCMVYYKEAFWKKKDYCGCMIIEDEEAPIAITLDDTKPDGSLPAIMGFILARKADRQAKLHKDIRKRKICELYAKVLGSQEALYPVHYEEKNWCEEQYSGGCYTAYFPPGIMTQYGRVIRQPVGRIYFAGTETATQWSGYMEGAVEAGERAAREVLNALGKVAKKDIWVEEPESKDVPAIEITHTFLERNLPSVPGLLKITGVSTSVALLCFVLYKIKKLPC
In words: In vitro MAO-A inhibition assay (rat brain mitochondria, serotonin substrate). It is filed as biochemical. To be noted: for IC50: rat brain mitochondria, serotonin substrate, mean ± SEM, triplicate. An outline of the steps:
(§1)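 Wistar rat brain mitochondria (0.80 mg protein/ml working suspension) were incubated with inhibitor at five concentrations in 50 mM Tris-HCl pH 8.2, 37 °C, 30 min. Substrates were serotonin (added as 4 mM) for MAO-A and benzylamine (added as 0.1 M) for MAO-B. After HCl stop, absorbance was read at 280 nm (5-hydroxyindolacetic acid) or 250 nm (benzaldehyde), in triplicate.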

For another experiment, the target named is T2, MAO-B (Rattus norvegicus, UniProt P19643).
T2 construct: employing crude rat brain mitochondrial suspension; from tissue; host or cells: brain mitochondria of adult Wistar rats
T2 sequence (P19643 1-520): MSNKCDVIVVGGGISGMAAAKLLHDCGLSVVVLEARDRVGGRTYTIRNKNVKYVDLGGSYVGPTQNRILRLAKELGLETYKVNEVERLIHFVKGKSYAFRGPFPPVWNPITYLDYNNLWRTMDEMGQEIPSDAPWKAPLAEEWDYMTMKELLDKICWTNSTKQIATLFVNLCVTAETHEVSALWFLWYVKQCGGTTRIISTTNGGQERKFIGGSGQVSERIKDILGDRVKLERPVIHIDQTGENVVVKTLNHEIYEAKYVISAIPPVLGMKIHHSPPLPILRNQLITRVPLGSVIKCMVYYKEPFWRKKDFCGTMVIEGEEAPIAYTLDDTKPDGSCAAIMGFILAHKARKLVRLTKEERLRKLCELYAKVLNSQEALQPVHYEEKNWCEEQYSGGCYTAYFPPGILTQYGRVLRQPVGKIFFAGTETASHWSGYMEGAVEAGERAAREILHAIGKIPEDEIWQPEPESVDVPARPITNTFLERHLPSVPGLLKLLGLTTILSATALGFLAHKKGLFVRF
As to the kind of experiment: biochemical. To be noted: for SI (selectivity index for MAO-B): ratio of experimental IC50(MAO-A)/IC50(MAO-B). An outline of the steps:
as §1

A further experiment concerns the target T3, rat brain AChE (Rattus norvegicus, UniProt P37136).
T3 construct: the resulting clear supernatants obtained were used as enzyme sources; from tissue; host or cells: rat brain cortex homogenate, 10,000 g supernatant
As to the kind of experiment: biochemical. It is filed as biochemical. To be noted: for IC50: rat brain AChE, ACTI substrate, mean ± SEM, triplicate. The method, boiled down: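 Rat brain cortex homogenate (10,000 g supernatant) served as the AChE source. Ellman-type assay in 20 mM sodium phosphate pH 7.4 with DTNB (10 mM stock), started with acetylthiocholine iodide (0.8 mM stock) and run 15 min at 25 °C. IC50 from triplicates, mean ± SEM.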

The mark [1] stands for this setting: read-out: MAO-A In vitro IC50 (µM) ± SEM.
Setting [2] is: time-dependent inhibition, pre-incubation 0, 15, 30, 60 min.
Setting [3] is: read-out: AChE In vitro IC50 (µM) ± SEM.

Results on four compounds are retold here after PMC6009888, “Design, synthesis, and pharmacological evaluation of 2-amino-5-nitrothiazole derived semicarbazones as dual inhibitors of monoamine oxidase and cholinesterase: effect of the size of aryl binding site” (Journal of Enzyme Inhibition and Medicinal Chemistry, 2017).

Usually IC50 stands for the midpoint of a concentration-inhibition curve. The term Ki denotes the dissociation constant of the complex between target and ligand, obtained from inhibition or displacement.

The structures appear in SMILES notation. Several values for one entry are separate records, joined by “and”; a condition that tells them apart may be missing. Equal values may be shown once. Entries after “also recorded” stand apart in the source; their conditions may differ. Read-outs that look alike come from different tables or passages of the source.

T3 sequence (P37136 32-614): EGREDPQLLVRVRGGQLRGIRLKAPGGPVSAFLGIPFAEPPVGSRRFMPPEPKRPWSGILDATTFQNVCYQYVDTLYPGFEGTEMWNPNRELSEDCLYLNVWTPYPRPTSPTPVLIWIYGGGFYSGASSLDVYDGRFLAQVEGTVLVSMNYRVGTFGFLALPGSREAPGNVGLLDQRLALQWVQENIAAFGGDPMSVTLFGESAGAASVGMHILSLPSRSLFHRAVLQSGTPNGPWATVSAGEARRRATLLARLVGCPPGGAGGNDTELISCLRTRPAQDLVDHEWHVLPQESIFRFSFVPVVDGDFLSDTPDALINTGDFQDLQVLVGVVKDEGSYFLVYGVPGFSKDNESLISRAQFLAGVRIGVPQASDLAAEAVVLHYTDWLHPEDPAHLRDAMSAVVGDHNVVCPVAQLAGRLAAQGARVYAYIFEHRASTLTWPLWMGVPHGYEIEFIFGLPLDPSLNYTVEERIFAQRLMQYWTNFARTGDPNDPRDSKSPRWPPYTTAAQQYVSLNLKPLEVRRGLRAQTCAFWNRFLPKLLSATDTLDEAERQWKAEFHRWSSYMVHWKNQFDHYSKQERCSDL

Regarding `CC(=NNC(=O)Nc1ncc([N+](=O)[O-])s1)c1ccc(Br)cc1` [Compound 4, 1-(1-(4-Bromophenyl)ethylidene)-4-(5-nitrothiazol-2-yl)semicarbazide], the half-maximal inhibitory concentration (IC50) on MAO-A (setting [1]) is < 100 µM and 70.2 µM. In addition, at MAO-B, it took 0.212 ± 0.004 µM to reach half-maximal inhibition (IC50), the Ki came out at 11.7 ± 0.58 µM and the “SI (selectivity index for MAO-B)” value amounted to 331.08. Besides, the “Mode of MAO-B inhibition” value at MAO-B (Lineweaver–Burk plots, benzylamine) is recorded as “competitive; also recorded: competitively”. At MAO-B (setting [2]), the “Reversibility of MAO-B inhibition” value is listed as “reversible”. The IC50 at rat brain AChE (setting [3]) is 0.34 ± 0.007 µM.

Consider `CC(=NNC(=O)Nc1ncc([N+](=O)[O-])s1)c1ccc(Cl)cc1` [Compound 5, 1-(1-(4-Chlorophenyl)ethylidene)-4-(5-nitrothiazol-2-yl)semicarbazide], for which the IC50 came out at 4761 ± 10.8 µM on MAO-A (setting [1]), 0.601 ± 0.015 µM against MAO-B and 356 ± 4.73 µM at rat brain AChE (setting [3]). Besides, the “SI (selectivity index for MAO-B)” value at MAO-B turned out to be 7921.79. Moreover, the “AChE: fold decrease in activity versus bromo substitution (compound 4)” value at rat brain AChE (halogen at carbimino terminal phenyl ring) is on record as > 1000 fold.

With `O=C(NN=C(c1ccc(Cl)cc1)c1ccc(Cl)cc1)Nc1ncc([N+](=O)[O-])s1` [Compound 19, 1-(Bis(4-chlorophenyl)methylene)-4-(5-nitrothiazol-2-yl)semicarbazide], the 50% inhibitory concentration (IC50) was > 100 µM and 50700 µM on MAO-A (MAO-A In vitro IC50 (µM) ± SEM); 1.48 ± 0.063 µM on MAO-B; 1.45 ± 0.047 µM on rat brain AChE (AChE In vitro IC50 (µM) ± SEM). Also, the “MAO-B: fold increase in activity relative to compound 17” value at MAO-B (diaryl analogues) was ~19.32 fold. The “SI (selectivity index for MAO-B)” value on MAO-B was found to be 34360.43. Further, at rat brain AChE (diaryl analogues), the “AChE: fold increase in activity relative to compound 17” value was ~7.95 fold.

In the case of `O=C(NN=C1C(=O)Nc2ccc(Br)cc21)Nc1ncc([N+](=O)[O-])s1` [Compound 21, 1-(5-Bromo-2-oxoindolin-3-ylidene)-4–(5-nitrothiazol-2-yl)semicarbazide], the “Mode of MAO-A inhibition” value on MAO-A (Lineweaver–Burk plots, serotonin) is “non-competitively”. Further, the Ki on MAO-A (kinetic study, non-competitive model, GraphPad Prism, read-out: Ki (dissociation constant) against MAO-A) was 17.3 ± 1.79 µM. The IC50 was < 100 µM and 57.2 µM on MAO-A (setting [1]); 0.734 ± 0.006 µM against MAO-B; 0.264 µM on rat brain AChE (setting [3]). In addition, on MAO-A (setting [2]), the “Reversibility of MAO-A inhibition” value is on record as “reversible”. Further, the “SI (selectivity index for MAO-B)” value on MAO-B was determined as 77.94. Further, the “Mode of AChE inhibition” value at rat brain AChE (Lineweaver–Burk plots, ACTI) is reported as “mixed-type”. Further, on rat brain AChE (setting [2]), the “Reversibility of AChE inhibition” value was “reversible”.
